SMILES strings stand for the structures.

This note sets out measurements from US7973033B2, “Multi-cyclic cinnamide derivatives” (Eisai R&D Management Co., Ltd., priority 2006, dated 2011).

The assay deals with Aβ 42 production. Briefly: Quantification of Aβ Peptide in Culture of Neurons from Rat Fetus Brain. The assay is classed as cell-based. The note with it: Neuron, 72 h; rat primary neuronal culture (cerebral cortex, embryonic day 18 Wistar rats); medium collected three days after addition of the compound; Aβ ELISA; read-out: Effect of reducing Aβ 42 production IC50. As to the method:
Quantification of Aβ Peptide in Culture of Neurons from Rat Fetus Brain
(1) Rat Primary Neuronal Culture
Primary neuronal cultures were prepared from the cerebral cortex of embryonic day 18 Wistar rats (Charles River Japan, Yokohama, Japan). Specifically, the embryos were aseptically removed from pregnant rats under ether anesthesia. The brain was isolated from the embryo and immersed in an ice-cold L-15 medium (Invitrogen Corp. Cat #11415-064, Carlsbad, Calif., USA, or SIGMA L1518, for example). The cerebral cortex was collected from the isolated brain under a stereoscopic microscope. The cerebral cortex fragments collected were enzymatically treated in an enzyme solution containing 0.25% trypsin (Invitrogen Corp. Cat #15050-065, Carlsbad, Calif., USA) and 0.01% DNase (Sigma D5025, St. Louis, Mo., USA) at 37° C. for 30 minutes to disperse the cells. Here, the enzymatic reaction was stopped by adding inactivated horse serum to the solution. The enzymatically treated solution was centrifuged at 1,500 rpm for five minutes to remove the supernatant. 5 to 10 ml of a medium was added to the resulting cell mass. Neurobasal medium (Invitrogen Corp. Cat #21103-049, Carlsbad, Calif., USA) supplemented with 2% B27 supplement (Invitrogen Corp. Cat #17504-044, Carlsbad, Calif., USA), 25 μM 2-mercaptoethanol (2-ME, WAKO Cat #139-06861, Osaka, Japan), 0.5 mM L-glutamine (Invitrogen Corp. Cat #25030-081, Carlsbad, Calif., USA), and Antibiotics-Antimycotics (Invitrogen Corp. Cat #15240-062, Carlsbad, Calif., USA) was used as the medium (Neurobasal/B27/2-ME). However, the above Neurobasal medium not supplemented with 2-ME (Neurobasal/B27) was used for the assay. The cells were redispersed by mild pipetting of the cell mass to which the medium was added. The cell dispersion was filtered through a 40-μm nylon mesh (Cell Strainer, Cat #35-2340, Becton Dickinson Labware, Franklin Lakes, N.J., USA) to remove the remaining cell mass, and thus a neuronal cell suspension was obtained. The neuronal cell suspension was diluted with the medium and then plated in a volume of 100 μl/well at an initial cell density of 5×10^5 cells/cm^2 in a 96-well polystyrene culture plate pre-coated with poly-L or D-lysine (Falcon Cat #35-3075, Becton Dickinson Labware, Franklin Lakes, N.J., USA coated with poly-L-lysine using the method shown below, or BIOCOAT™ cell environments Poly-D-lysine cell ware 96-well plate, Cat #35-6461, Becton Dickinson Labware, Franklin Lakes, N.J., USA). Poly-L-lysine coating was carried out as follows. 100 μg/ml of a poly-L-lysine (SIGMA P2636, St. Louis, Mo., USA) solution was aseptically prepared with a 0.15 M borate buffer (pH 8.5). 100 μl/well of the solution was added to the 96-well polystyrene culture plate and incubated at room temperature for one or more hours or at 4° C. overnight or longer. The coated 96-well polystyrene culture plate was washed with sterile water four or more times, and then dried or rinsed with, for example, sterile PBS or medium, and used for cell plating. The plated cells were cultured in the culture plate at 37° C. in 5% CO2-95% air for one day. Then, the total amount of the medium was replaced with a fresh Neurobasal™/B27/2-ME medium, and then the cells were cultured for further three days.
The drug was added to the culture plate on Day 4 of culture as follows. The total amount of the medium was removed from the wells, and 180 μl/well of Neurobasal medium not containing 2-ME and containing 2% B-27 (Neurobasal/B27) was added thereto. A solution of the test compound in dimethyl sulfoxide (hereinafter abbreviated as DMSO) was diluted with Neurobasal/B27 at 10-fold of the final concentration. 20 μl/well of the dilution was added to and sufficiently mixed with the medium. The final DMSO concentration was 1% or less. Only DMSO was added to the control group.
The cells were cultured for three days after addition of the compound, and the total amount of the medium was collected. […]
In general terms: ELISA stands for enzyme-linked immunosorbent assay.

As usually defined, the IC50 is the concentration that gives 50% inhibition. With `COc1cc(/C=C/c2nnc(C(C)(C)c3ccccc3)[nH]2)ccc1-n1cnc(C)c1` [Example 49, 3-{(E)-2-[3-methoxy-4-(4-methyl-1H-imidazol-1-yl)phenyl]vinyl}-5-(1-methyl-1-phenylethyl)-4H-[1,2,4]triazole], the IC50 was 63 nM.
Take `COc1cc(/C=C/c2nc3n(n2)CCC[C@@H]3c2ccc(OC(F)(F)F)cc2)ccc1-n1cnc(C)c1` [Example 129, (−)-2-{(E)-2-[3-methoxy-4-(4-methyl-1H-imidazol-1-yl)phenyl]vinyl}-8-(4-trifluoromethoxyphenyl)-5,6,7,8-tetrahydro[1,2,4]triazolo[1,5-a]pyridine]: the IC50 was 17 nM.
